Assay results from US12655116B2, “Substituted isophthalic acid diamides” (Bayer Aktiengesellschaft, priority 2020, dated 2026).

Legend:
MATIN [1] = test: Pre-emergence herbicidal action against MATIN; type: in vivo, Matricaria inodora
Outline: (§1)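 Pre-emergence soil-surface spray of formulated compound (WP or EC; 600 to 800 l/ha; 0.2% wetting agent) over seeds sown in sandy loam. After 3 weeks under greenhouse conditions, damage is estimated visually in percent against untreated plants.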

VIOTR [2] = test: Pre-emergence herbicidal action against VIOTR; type: in vivo, Viola tricolor
Outline: as §1

AMARE [3] = test: Post-emergence herbicidal action against AMARE; type: in vivo, Amaranthus retroflexus; details: 20 g/ha, visual assessment about 3 weeks after treatment, 100% = plants have died, 0% = like control plants
Outline: (§2)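 Greenhouse plants in sandy loam were sprayed at the one-leaf stage, 2 to 3 weeks after sowing, with WP or EC formulations as aqueous suspension or emulsion (600 to 800 l/ha water, 0.2% wetting agent). Visual damage was scored about 3 weeks later versus untreated controls, 0% = like control, 100% = dead.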

MATIN [4] = test: Post-emergence herbicidal action against MATIN; type: in vivo, Matricaria inodora
Outline: as §2

ABUTH [5] = test: Post-emergence herbicidal action against ABUTH; type: in vivo, Abutilon theophrasti; details: visual assessment about 3 weeks after treatment vs untreated controls
Outline: as §2

VERPE [6] = test: Post-emergence herbicidal action against VERPE; type: in vivo, Veronica persica
Outline: as §2

SETVI [7] = test: Post-emergence herbicidal action against SETVI; type: in vivo, Setaria viridis
Outline: as §2

POLCO = test: Pre-emergence herbicidal action against POLCO; type: in vivo, Polygonum convolvulus; details: dosage 80 g/ha
Outline: as §1

PHBPU [8] = test: Post-emergence herbicidal action against PHBPU; type: in vivo, Pharbitis purpurea; details: dosage 20 g/ha
Outline: as §2

ECHCG [9] = test: Post-emergence herbicidal action against ECHCG; type: in vivo, Echinochloa crus-galli
Outline: as §2

DIGSA [10] = test: Post-emergence herbicidal action against DIGSA; type: in vivo, Digitaria sanguinalis; details: for Post-emergence action against DIGSA in %: 5 g/ha; for Post-emergence action against DIGSA: 20 g/ha
Outline: as §2

VERPE [11] = test: Pre-emergence herbicidal action against VERPE; type: in vivo, Veronica persica; details: dosage 80 g/ha
Outline: as §1

ABUTH [12] = test: Pre-emergence herbicidal action against ABUTH; type: in vivo, Abutilon theophrasti; details: for Pre-emergence action against ABUTH (herbicidal activity): 80 g/ha, scored visually after 3 weeks vs untreated controls (100% = plants have died, 0% = like control plants); for Pre-emergence action against ABUTH (herbicidal activity in percent): dosage 20 g/ha, scored visually after 3 weeks vs untreated controls, 100% = plants have died, 0% = like control plants
Outline: as §1

ECHCG [13] = test: Pre-emergence herbicidal action against ECHCG; type: in vivo, Echinochloa crus-galli; details: 80 g/ha
Outline: as §1

VIOTR [14] = test: Post-emergence herbicidal action against VIOTR; type: in vivo, Viola tricolor
Outline: as §2

SETVI [15] = test: Pre-emergence herbicidal action against SETVI; type: in vivo, Setaria viridis; details: dosage 80 g/ha
Outline: as §1

PHBPU [16] = test: Pre-emergence herbicidal action against PHBPU; type: in vivo, Pharbitis purpurea; details: dosage 80 g/ha
Outline: as §1

AMARE [17] = test: Pre-emergence herbicidal action against AMARE; type: in vivo, Amaranthus retroflexus
Outline: as §1

DIGSA [18] = test: Pre-emergence herbicidal action against DIGSA; type: in vivo, Digitaria sanguinalis
Outline: as §1

[19] = 20 g/ha, scored visually after 3 weeks vs untreated controls, 100% = plants have died, 0% = like control plants
[20] = 80 g/ha, scored visually after 3 weeks vs untreated controls (100% = plants have died, 0% = like control plants)

| Structure (SMILES) | Pre-emergence action against MATIN in % (MATIN [1]; dosage 20 g/ha) [%] | Pre-emergence action against MATIN in % (MATIN [1]; dosage 80 g/ha) [%] | Pre-emergence action against VIOTR in % (VIOTR [2]; dosage 20 g/ha) [%] | Pre-emergence action against VIOTR in % (VIOTR [2]; dosage 80 g/ha) [%] | Post-emergence action at 20 g/ha against AMARE in % (AMARE [3]) [%] | Post-emergence action against MATIN in % (MATIN [4]; dosage 5 g/ha) [%] | Post-emergence action against MATIN in % (MATIN [4]; dosage 20 g/ha) [%] | Post-emergence action against ABUTH in % (ABUTH [5]; dosage 20 g/ha) [%] | Post-emergence action against VERPE in % (VERPE [6]; 20 g/ha) [%] | Post-emergence action against SETVI in % (SETVI [7]; dosage 5 g/ha) [%] | Post-emergence action against SETVI in % (SETVI [7]; dosage 20 g/ha) [%] | Pre-emergence action against POLCO in % (POLCO) [%] | Post-emergence action against PHBPU in % (PHBPU [8]) [%] | Post-emergence action against ECHCG in % (ECHCG [9]; dosage 20 g/ha) [%] | Post-emergence action against DIGSA in % (DIGSA [10]) [%] | Post-emergence action against DIGSA (DIGSA [10]) [%] | Pre-emergence action against VERPE in % (VERPE [11]) [%] | Pre-emergence action against ABUTH (herbicidal activity) (ABUTH [12]) [%] | Pre-emergence action against ABUTH (herbicidal activity in percent) (ABUTH [12]) [%] | Pre-emergence action against ECHCG in % (ECHCG [13]) [%] | further results |
| --- | --- | --- | --- | --- | --- | --- | --- | --- | --- | --- | --- | --- | --- | --- | --- | --- | --- | --- | --- | --- | --- |
| CCc1c(C(=O)Nc2nnnn2CC)ccc(C(F)F)c1C(=O)NC [Example 2-277] | 90 | 100 | 100 | 100 | 90 | 90 | 90 | 90 | 90 | 90 | 90 | 90 | 90 | 100 | 90 | 90 | 100 | 100 | 90 | 90 | Post-emergence action against ABUTH in % (ABUTH [5]; dosage 5 g/ha): 80%; Post-emergence action against VERPE in % (VERPE [6]; 5 g/ha): 80%; Post-emergence action against VIOTR in % (VIOTR [14]; 5 g/ha): 90%; Post-emergence action against VIOTR in % (VIOTR [14]; 20 g/ha): 90%; Pre-emergence action against SETVI in % (SETVI [15]): 80%; Pre-emergence action against PHBPU in % (PHBPU [16]): 80%; Pre-emergence action against AMARE in % (AMARE [17]; [19]): 100%; Pre-emergence action against AMARE in % (AMARE [17]; [20]): 100%; Pre-emergence action against DIGSA in % (DIGSA [18]; dosage 20 g/ha): 90%; Pre-emergence action against DIGSA in % (DIGSA [18]; dosage 80 g/ha): 100% |
| CCn1nnnc1NC(=O)c1ccc(C(F)F)c(C(=O)NC2CC2)c1C1CC1 [Example 2-306] | 90 | 100 | 100 | 100 | 90 | 80 | 90 | 80 | 90 | 80 | 80 | 80 | 80 | 90 | 80 | 90 | 100 | 100 | 100 | 100 | Post-emergence action against ECHCG in % (ECHCG [9]; dosage 5 g/ha): 90%; Post-emergence action against VIOTR in % (VIOTR [14]; 5 g/ha): 90%; Post-emergence action against VIOTR in % (VIOTR [14]; 20 g/ha): 90%; Pre-emergence action against SETVI in % (SETVI [15]): 100%; Pre-emergence action against PHBPU in % (PHBPU [16]): 100%; Pre-emergence action against AMARE in % (AMARE [17]; [19]): 90%; Pre-emergence action against AMARE in % (AMARE [17]; [20]): 100%; Pre-emergence action against DIGSA in % (DIGSA [18]; dosage 20 g/ha): 100%; Pre-emergence action against DIGSA in % (DIGSA [18]; dosage 80 g/ha): 100% |
